# In patent US10246449B2, “1,2,3 triazole-thiazole compounds, process for preparation and use thereof” (Council of Scientific & Industrial Research, priority 2015, dated 2019):
row,melting point,Structure (SMILES)
1,98 to 99 °C,"CCCCc1cn(Cc2csc(-c3ccc(Cl)cc3)n2)nn1 [Compound 2, 4-((4-Butyl-1H-1,2,3-triazol-1-yl)methyl)-2-(4-chlorophenyl)thiazole]"
2,109 to 111 °C,"Clc1ccc(-c2nc(Cn3cc(C4CC4)nn3)cs2)cc1 [Compound 3, 2-(4-Chlorophenyl)-4-((4-cyclopropyl-1H-1,2,3-triazol-1-yl)methyl)thiazole]"
3,152 to 154 °C,"OCc1cn(Cc2csc(-c3ccc(Cl)cc3)n2)nn1 [Compound 4, (1-((2-(4-Chlorophenyl)thiazol-4-yl)methyl)-1H-1,2,3-triazol-4-yl)methanol]"
4,88 to 90 °C,"CCCCCc1cn(Cc2csc(-c3ccc(Cl)cc3)n2)nn1 [Compound 5, 2-(4-Chlorophenyl)-4-((4-pentyl-1H-1,2,3-triazol-1-yl)methyl)thiazole]"
5,92 to 94 °C,"Clc1ccc(-c2nc(Cn3cc(COC4CCCCO4)nn3)cs2)cc1 (centres unmarked) [Compound 6, 2-(4-Chlorophenyl)-4-((4-(((tetrahydro-2H-pyran-2-yl)oxy)methyl)-1H-1,2,3-triazol-1-yl)methyl)thiazole]"
6,149 to 151 °C,"CCOC(=O)c1cn(Cc2csc(-c3ccc(Cl)cc3)n2)nn1 [Compound 7, Ethyl 1-((2-(4-chlorophenyl)thiazol-4-yl)methyl)-1H-1,2,3-triazole-4-carboxylate]"
7,157 to 159 °C,"OCCCCc1cn(Cc2csc(-c3ccc(Cl)cc3)n2)nn1 [Compound 8, 4-(1-((2-(4-Chlorophenyl)thiazol-4-yl)methyl)-1H-1,2,3-triazol-4-yl)butan-1-ol]"
8,175 to 177 °C,"Clc1ccc(-c2nc(Cn3nncc3-c3ccccc3)cs2)cc1 [Compound 9, 2-(4-chlorophenyl)-4-((5-phenyl-1H-1,2,3-triazol-1-yl)methyl)thiazole]"
